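Values below derive from 48-hour exposures of cells grown in 96-well plates, with endpoints linearly interpolated between the two concentrations bracketing the appropriate inhibition level. The concentration for 50% growth inhibition is given as GI50.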 Calls of active or inactive are those of the source. No stated cut-off is given here; in the data, active = GI50 up to about 1.1 µM and inactive = higher.
How the values were obtained:
Test in all cases: inhibition of tumour cell growth, NCI panel, 48 h
A549 = system: A549
MOLT-4 = system: MOLT-4
NCI-H522 = system: NCI-H522
ACHN = system: ACHN
K562 = system: K562
SNB-19 = system: SNB-19
HCT-116 = system: HCT-116
UACC-62 = system: UACC-62
RXF 393 = system: RXF 393
EKVX = system: EKVX
M19-MEL = system: M19-MEL
HCC 2998 = system: HCC 2998
OVCAR-3 = system: OVCAR-3
COLO 205 = system: COLO 205
SN12C = system: SN12C
HCT-15 = system: HCT-15
SK-MEL-2 = system: SK-MEL-2
NCI/ADR-RES = system: NCI/ADR-RES
MDA-MB-435 = system: MDA-MB-435
T47D = system: T47D

| SMILES | GI50 (A549) | GI50 (MOLT-4) | GI50 (NCI-H522) | GI50 (ACHN) | GI50 (K562) | GI50 (SNB-19) | GI50 (HCT-116) | GI50 (UACC-62) | GI50 (RXF 393) | GI50 (EKVX) | GI50 (M19-MEL) | GI50 (HCC 2998) | GI50 (OVCAR-3) | GI50 (COLO 205) | GI50 (SN12C) | GI50 (HCT-15) | GI50 (SK-MEL-2) | GI50 (NCI/ADR-RES) | GI50 (MDA-MB-435) | GI50 (T47D) |
| --- | --- | --- | --- | --- | --- | --- | --- | --- | --- | --- | --- | --- | --- | --- | --- | --- | --- | --- | --- | --- |
| CC(=O)c1ccc(NC(=O)COC(=O)c2cccc3c(=O)c4ccccc4[nH]c23)cc1 | 45.4 µM (inactive) | > 100 µM (inactive) | 72.6 µM (inactive) | 27.8 µM (inactive) | > 100 µM (inactive) | 22.5 µM (inactive) | 12.2 µM (inactive) | 24.9 µM (inactive) | 18 µM (inactive) | > 100 µM (inactive) | 25.5 µM (inactive) | > 100 µM (inactive) | 27.2 µM (inactive) | 33.6 µM (inactive) | 16.1 µM (inactive) |  |  |  |  |  |
| CCOC(=O)c1cc(/C=C/C(C)=C/C(=O)OC)n(C)c1C | > 100 µM (inactive) | 41.7 µM (inactive) | 76 µM (inactive) | 45.2 µM (inactive) | 25.8 µM (inactive) | > 100 µM (inactive) |  | 50.6 µM (inactive) |  | > 100 µM (inactive) | > 100 µM (inactive) | 92.5 µM (inactive) | 58.3 µM (inactive) | > 100 µM (inactive) | > 100 µM (inactive) | 63.8 µM |  |  |  |  |
| CC(C)N(C(=O)C12C3C4C1C1C2C3C41C(O)C(C)(C)C)C(C)C (stereo unspecified) | > 50 µM (inactive) | > 50 µM (inactive) | > 50 µM (inactive) | > 50 µM (inactive) | > 50 µM (inactive) | > 50 µM (inactive) | > 50 µM (inactive) | > 50 µM (inactive) |  | > 50 µM (inactive) | > 50 µM (inactive) | > 50 µM (inactive) | > 50 µM (inactive) | > 50 µM (inactive) | > 50 µM (inactive) | > 50 µM |  |  |  |  |
| Clc1ccc(C(c2ccc(Cl)cc2)c2ccccn2)cc1 | 18.5 µM (inactive) | 21.4 µM (inactive) | 21.4 µM (inactive) | 18.1 µM (inactive) | 21.6 µM (inactive) | 22.3 µM (inactive) |  | 16.4 µM (inactive) | 14.5 µM (inactive) | 23 µM (inactive) | 31.4 µM (inactive) | 15.9 µM (inactive) | > 10 µM (inactive) |  | 17.3 µM (inactive) | 17.3 µM | 19 µM (inactive) |  |  |  |
| CN/N=C(\C)c1c(O)cc(C)oc1=O | > 100 µM (inactive) | > 100 µM (inactive) | > 100 µM (inactive) | > 100 µM (inactive) | > 100 µM (inactive) | > 100 µM (inactive) | > 100 µM (inactive) | > 100 µM (inactive) |  | > 100 µM (inactive) | > 100 µM (inactive) | > 100 µM (inactive) |  |  | > 100 µM (inactive) | > 100 µM | > 100 µM (inactive) |  |  |  |
| OCC1OC(NO)C(O)C(O)C1O (stereo unspecified) | > 100 µM (inactive) | > 100 µM (inactive) | > 100 µM (inactive) | > 100 µM (inactive) | > 100 µM (inactive) | > 100 µM (inactive) | > 100 µM (inactive) | > 100 µM (inactive) | > 100 µM (inactive) |  | > 100 µM (inactive) | > 100 µM (inactive) | > 100 µM (inactive) | > 100 µM (inactive) | > 100 µM (inactive) | > 100 µM |  |  |  |  |
| CC[N+](CC)(CC)Cc1cc2ccccc2n1C(=O)OC | > 100 µM (inactive) | > 100 µM (inactive) | > 100 µM (inactive) | > 100 µM (inactive) | > 100 µM (inactive) | > 100 µM (inactive) | > 100 µM (inactive) | > 100 µM (inactive) |  |  | > 100 µM (inactive) | > 100 µM (inactive) | 70.6 µM (inactive) | > 100 µM (inactive) |  | > 100 µM | > 100 µM (inactive) |  |  |  |
| O=C(O)C(C(=O)C(=O)C(C(=O)O)c1ccc(Cl)cc1)c1ccc(Cl)cc1 (stereo unspecified) | 2.9 µM (inactive) | 1.72 µM (inactive) | 1.88 µM (inactive) | 3.64 µM (inactive) | 2.57 µM (inactive) | 3.68 µM (inactive) | 3.1 µM (inactive) | 1.87 µM (inactive) | 3.92 µM (inactive) | 3.27 µM (inactive) | 3.39 µM (inactive) | 4.02 µM (inactive) | 2.9 µM (inactive) | 6.44 µM (inactive) | 2.94 µM (inactive) |  |  |  |  |  |
| O=C(/C=C\c1cccc2ccccc12)c1ccc(F)cc1 | 26.8 µM (inactive) | 16 µM (inactive) | 20.5 µM (inactive) | 17 µM (inactive) | 11.1 µM (inactive) | 16.6 µM (inactive) | 13.9 µM (inactive) | 13.9 µM (inactive) |  | 18.8 µM (inactive) | 19.6 µM (inactive) | 19.5 µM (inactive) | 17.1 µM (inactive) | 19 µM (inactive) | 17.3 µM (inactive) | 15.1 µM |  |  |  |  |
| CN(C(=O)C12C3C4C1C1C4(C(=O)C45C6C7C4C4C5C6C74C)C3C12C)C(C)(C)C (stereo unspecified) | 52.7 µM (inactive) | 40.3 µM (inactive) | 48.6 µM (inactive) | 74.3 µM (inactive) | 26.4 µM (inactive) | 69.5 µM (inactive) | 52.7 µM (inactive) | 48.3 µM (inactive) |  | > 100 µM (inactive) | 45.9 µM (inactive) | 91 µM (inactive) |  | 35.4 µM (inactive) | > 100 µM (inactive) | 28.3 µM | > 100 µM (inactive) |  |  |  |
| CCc1cccc(C)c1N1C(=O)C(=O)C(c2nc3ccccc3o2)C(=O)C1=O | > 100 µM (inactive) | > 100 µM (inactive) | > 100 µM (inactive) | > 100 µM (inactive) | > 100 µM (inactive) | > 100 µM (inactive) | > 100 µM (inactive) | > 100 µM (inactive) |  | > 100 µM (inactive) | > 100 µM (inactive) | > 100 µM (inactive) | > 100 µM (inactive) | > 100 µM (inactive) | > 100 µM (inactive) | > 100 µM | > 100 µM (inactive) |  |  |  |
| COC(=O)C1CC2C=CC=CC(=O)C2(C)C1 (stereo unspecified) | > 100 µM (inactive) | 25.6 µM (inactive) | > 10 µM (inactive) | 59.6 µM (inactive) | 30.7 µM (inactive) | 76.7 µM (inactive) | 28 µM (inactive) | 39.9 µM (inactive) |  | > 100 µM (inactive) | 55.5 µM (inactive) |  | > 100 µM (inactive) | 76.9 µM (inactive) | 81.1 µM (inactive) | 31 µM | 59.6 µM (inactive) |  |  |  |
| CC(C)NCCNC(=O)c1ccccc1Nc1c(Cl)cccc1Cl | 17.3 µM (inactive) | 8.69 µM (inactive) |  | 17.4 µM (inactive) | 6.95 µM (inactive) | 15.3 µM (inactive) | 11.3 µM (inactive) | 15.8 µM (inactive) | 5.08 µM (inactive) | 13.6 µM (inactive) | 8.38 µM (inactive) | 2.84 µM (inactive) | 12.6 µM (inactive) | 11.6 µM (inactive) | 13.2 µM (inactive) | 13 µM |  |  |  |  |
| N#C/C(N)=N/c1ccccc1 | > 100 µM (inactive) | > 100 µM (inactive) | > 100 µM (inactive) | > 100 µM (inactive) | 71 µM (inactive) | > 100 µM (inactive) | > 100 µM (inactive) | > 100 µM (inactive) |  | > 100 µM (inactive) | > 100 µM (inactive) | > 100 µM (inactive) | > 100 µM (inactive) | > 100 µM (inactive) | > 100 µM (inactive) | > 100 µM | > 100 µM (inactive) |  |  |  |
| O=C(/C=C1\Nc2ccccc2N=C1NC12CC3CC(CC(C3)C1)C2)c1ccc(Br)cc1 | > 10 µM (inactive) | > 10 µM (inactive) | > 10 µM (inactive) | > 10 µM (inactive) | > 10 µM (inactive) | > 10 µM (inactive) | > 10 µM (inactive) | > 10 µM (inactive) | > 10 µM (inactive) | > 10 µM (inactive) |  | > 10 µM (inactive) | > 10 µM (inactive) | > 10 µM (inactive) | > 10 µM (inactive) | > 10 µM | > 10 µM (inactive) | > 10 µM (inactive) | > 10 µM (inactive) | > 10 µM (inactive) |
| CC1(C)O[C@@H](CC/C=C/CO)[C@H](CC/C=C/CO)O1 | > 100 µM (inactive) | > 100 µM (inactive) | > 100 µM (inactive) | > 100 µM (inactive) | > 100 µM (inactive) | > 100 µM (inactive) | > 100 µM (inactive) |  |  | > 100 µM (inactive) | > 100 µM (inactive) | > 100 µM (inactive) | > 100 µM (inactive) | > 100 µM (inactive) | > 100 µM (inactive) | > 100 µM | > 100 µM (inactive) |  |  |  |
| COc1ccc(C(=O)/C=C/c2cc(O)c(O)cc2F)c(OC)c1 | 10.5 µM (inactive) | 3.71 µM (inactive) | 0.354 µM (active) | 7.08 µM (inactive) | 1.16 µM (inactive) | 9.79 µM (inactive) | 6.97 µM (inactive) | 10.9 µM (inactive) | 9.68 µM (inactive) | 14.4 µM (inactive) |  | 2.27 µM (inactive) | 0.327 µM (active) | 15.8 µM (inactive) | 3.94 µM (inactive) | 0.448 µM | 4.91 µM (inactive) | 7.85 µM (inactive) | 2.9 µM (inactive) | 4.05 µM (inactive) |
| O=C1NC(Nc2cccc(Cl)c2)=N/C1=C\c1ccc(Cl)c(Cl)c1 | 3.8 µM (inactive) | 3.37 µM (inactive) | 2.52 µM (inactive) | 5.05 µM (inactive) | 3.33 µM (inactive) | 7.74 µM (inactive) | 3.94 µM (inactive) | 10.1 µM (inactive) | 3.21 µM (inactive) | 3.67 µM (inactive) |  | 2.28 µM (inactive) | 5.14 µM (inactive) | 3.88 µM (inactive) | 2.54 µM (inactive) | 5.28 µM | 2.44 µM (inactive) | 4.04 µM (inactive) | 4.85 µM (inactive) | 3.52 µM (inactive) |
